The molecules below were run against human Cav2.2 (Homo sapiens, UniProt Q00975) (assay: Assessment of calcium channel activity using FLIPR (Ca2+ influx in IMR32 cells)). Details: not given.
Assay type: cell-based
Procedure, shortened: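 IC50 values derive from nonlinear sigmoidal fitting of percent inhibition, relative to inhibitor-free activity, of Ca2+ influx read by FLIPR. Cells were IMR32 human neuroblastoma, plated at 1−1.2×10^5 per well and grown 48 h at 37 °C.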

human Cav2.2, sequence (Q00975 whole entry): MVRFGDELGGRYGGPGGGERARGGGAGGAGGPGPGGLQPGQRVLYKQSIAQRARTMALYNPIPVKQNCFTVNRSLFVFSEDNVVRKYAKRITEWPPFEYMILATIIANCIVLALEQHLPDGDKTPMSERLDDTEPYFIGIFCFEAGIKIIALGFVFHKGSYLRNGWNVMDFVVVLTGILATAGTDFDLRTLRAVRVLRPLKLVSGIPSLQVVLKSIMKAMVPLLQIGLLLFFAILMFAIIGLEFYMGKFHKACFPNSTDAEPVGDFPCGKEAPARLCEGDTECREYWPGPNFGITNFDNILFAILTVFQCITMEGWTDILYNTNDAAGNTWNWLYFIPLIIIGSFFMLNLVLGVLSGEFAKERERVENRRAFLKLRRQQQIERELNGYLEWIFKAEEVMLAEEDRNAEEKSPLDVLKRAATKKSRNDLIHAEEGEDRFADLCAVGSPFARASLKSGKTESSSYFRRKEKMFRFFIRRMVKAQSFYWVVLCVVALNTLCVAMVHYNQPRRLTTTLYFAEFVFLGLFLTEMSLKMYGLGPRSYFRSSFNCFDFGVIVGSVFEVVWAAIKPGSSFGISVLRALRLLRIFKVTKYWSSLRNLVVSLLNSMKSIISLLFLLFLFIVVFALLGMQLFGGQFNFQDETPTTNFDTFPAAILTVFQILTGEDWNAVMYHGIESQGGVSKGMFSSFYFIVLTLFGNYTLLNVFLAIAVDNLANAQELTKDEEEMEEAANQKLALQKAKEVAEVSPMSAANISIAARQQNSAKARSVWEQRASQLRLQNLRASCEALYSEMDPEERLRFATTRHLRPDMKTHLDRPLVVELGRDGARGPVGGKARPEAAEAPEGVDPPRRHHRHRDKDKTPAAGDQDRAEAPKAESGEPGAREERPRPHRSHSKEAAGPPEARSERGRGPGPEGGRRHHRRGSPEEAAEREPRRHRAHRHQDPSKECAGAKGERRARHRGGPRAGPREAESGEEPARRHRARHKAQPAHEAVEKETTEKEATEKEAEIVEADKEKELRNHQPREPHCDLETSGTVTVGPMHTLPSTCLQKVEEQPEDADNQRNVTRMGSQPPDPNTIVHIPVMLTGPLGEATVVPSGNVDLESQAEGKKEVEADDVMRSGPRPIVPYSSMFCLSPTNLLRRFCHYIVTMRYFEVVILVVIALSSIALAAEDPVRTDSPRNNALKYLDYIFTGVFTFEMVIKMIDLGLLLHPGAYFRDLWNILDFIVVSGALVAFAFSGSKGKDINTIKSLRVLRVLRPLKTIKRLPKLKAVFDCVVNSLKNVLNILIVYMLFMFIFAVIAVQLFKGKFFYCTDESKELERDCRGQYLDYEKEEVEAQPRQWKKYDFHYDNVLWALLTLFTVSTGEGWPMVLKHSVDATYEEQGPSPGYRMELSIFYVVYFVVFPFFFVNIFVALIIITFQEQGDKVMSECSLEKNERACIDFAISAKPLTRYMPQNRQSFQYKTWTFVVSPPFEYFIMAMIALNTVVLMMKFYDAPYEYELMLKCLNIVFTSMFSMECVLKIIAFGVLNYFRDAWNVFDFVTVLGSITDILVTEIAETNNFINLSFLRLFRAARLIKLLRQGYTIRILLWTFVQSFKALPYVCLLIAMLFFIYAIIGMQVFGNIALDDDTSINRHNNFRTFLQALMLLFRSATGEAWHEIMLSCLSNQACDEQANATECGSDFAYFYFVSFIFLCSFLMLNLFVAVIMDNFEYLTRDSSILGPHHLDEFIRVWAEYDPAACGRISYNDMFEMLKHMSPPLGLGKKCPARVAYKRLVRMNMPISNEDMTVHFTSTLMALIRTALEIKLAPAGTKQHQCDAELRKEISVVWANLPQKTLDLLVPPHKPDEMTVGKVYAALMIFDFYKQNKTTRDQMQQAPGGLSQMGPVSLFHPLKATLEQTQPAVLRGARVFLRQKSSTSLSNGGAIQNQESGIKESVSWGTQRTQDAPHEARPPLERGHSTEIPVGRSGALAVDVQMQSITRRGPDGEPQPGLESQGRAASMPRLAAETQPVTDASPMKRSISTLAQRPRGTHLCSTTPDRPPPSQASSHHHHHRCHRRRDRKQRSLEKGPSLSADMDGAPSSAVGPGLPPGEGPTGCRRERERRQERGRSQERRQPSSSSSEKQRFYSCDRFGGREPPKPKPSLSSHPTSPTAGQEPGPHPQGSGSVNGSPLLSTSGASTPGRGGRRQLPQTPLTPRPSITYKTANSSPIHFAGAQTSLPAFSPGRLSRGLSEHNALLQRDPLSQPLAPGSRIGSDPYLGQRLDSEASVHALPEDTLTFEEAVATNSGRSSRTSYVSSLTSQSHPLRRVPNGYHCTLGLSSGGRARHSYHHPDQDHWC
human Cav2.2, sequence (P54289 25-956 partner limits assumed): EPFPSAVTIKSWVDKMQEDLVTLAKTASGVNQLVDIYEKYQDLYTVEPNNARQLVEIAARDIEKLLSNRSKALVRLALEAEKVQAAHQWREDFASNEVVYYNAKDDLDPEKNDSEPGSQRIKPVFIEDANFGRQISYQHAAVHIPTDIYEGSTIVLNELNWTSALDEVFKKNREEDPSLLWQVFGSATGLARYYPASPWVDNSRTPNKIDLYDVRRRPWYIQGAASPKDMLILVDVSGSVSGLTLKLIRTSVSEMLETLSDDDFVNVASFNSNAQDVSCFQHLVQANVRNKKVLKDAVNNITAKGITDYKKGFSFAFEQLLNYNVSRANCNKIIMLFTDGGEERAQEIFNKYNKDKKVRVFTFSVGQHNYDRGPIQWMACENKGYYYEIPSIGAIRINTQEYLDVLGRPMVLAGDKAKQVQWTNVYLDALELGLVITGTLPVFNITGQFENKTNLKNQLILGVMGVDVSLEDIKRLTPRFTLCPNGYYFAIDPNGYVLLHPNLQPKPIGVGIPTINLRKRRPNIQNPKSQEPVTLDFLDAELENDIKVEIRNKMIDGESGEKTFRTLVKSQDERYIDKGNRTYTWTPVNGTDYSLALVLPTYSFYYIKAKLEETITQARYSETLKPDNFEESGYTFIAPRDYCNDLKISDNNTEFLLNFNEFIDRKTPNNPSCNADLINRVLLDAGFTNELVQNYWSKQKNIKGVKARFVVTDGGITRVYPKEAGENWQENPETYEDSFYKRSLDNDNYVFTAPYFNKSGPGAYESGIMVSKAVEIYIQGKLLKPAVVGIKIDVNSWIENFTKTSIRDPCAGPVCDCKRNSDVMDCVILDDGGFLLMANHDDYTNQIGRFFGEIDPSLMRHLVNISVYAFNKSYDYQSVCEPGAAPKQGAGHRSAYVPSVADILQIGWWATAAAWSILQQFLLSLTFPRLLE
human Cav2.2, sequence (P54289 957-1103 partner limits assumed): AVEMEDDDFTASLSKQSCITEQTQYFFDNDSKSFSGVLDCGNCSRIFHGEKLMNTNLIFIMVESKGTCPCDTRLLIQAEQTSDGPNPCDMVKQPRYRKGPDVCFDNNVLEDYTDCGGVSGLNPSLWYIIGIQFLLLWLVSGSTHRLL
human Cav2.2, sequence (P54284 whole entry partner): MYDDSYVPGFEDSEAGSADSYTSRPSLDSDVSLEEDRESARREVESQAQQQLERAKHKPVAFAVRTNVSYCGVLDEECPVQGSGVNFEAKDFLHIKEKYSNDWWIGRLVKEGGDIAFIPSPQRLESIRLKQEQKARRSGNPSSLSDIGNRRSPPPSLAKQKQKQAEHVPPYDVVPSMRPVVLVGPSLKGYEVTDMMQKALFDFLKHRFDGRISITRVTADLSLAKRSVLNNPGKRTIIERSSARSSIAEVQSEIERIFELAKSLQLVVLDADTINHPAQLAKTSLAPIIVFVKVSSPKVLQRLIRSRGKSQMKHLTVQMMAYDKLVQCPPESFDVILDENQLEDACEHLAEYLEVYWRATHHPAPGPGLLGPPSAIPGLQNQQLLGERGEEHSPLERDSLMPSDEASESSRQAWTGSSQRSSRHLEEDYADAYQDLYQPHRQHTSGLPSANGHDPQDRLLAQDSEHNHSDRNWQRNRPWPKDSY

Row | Structure (SMILES) | IC50 [µM]
1 | Fc1cnc2[nH]cc(CN[C@H]3CC[C@@H]4CN(c5cccc(C(F)(F)F)n5)C[C@@H]43)c2c1 [Example 690, (3aR,4S,6aS)-N-[(5-fluoro-1H-pyrrolo[2,3-b]pyridin-3-yl)methyl]-2-[6-(trifluoromethyl)pyridin-2-yl]octahydrocyclopenta[c]pyrrol-4-amine] | 0.75
2 | Fc1ccc(-c2nc(CN[C@H]3CC[C@@H]4CN(c5cccc(C(F)(F)F)n5)C[C@@H]43)co2)cc1 [Example 743, (3aR,4S,6aS)-N-{[2-(4-fluorophenyl)-1,3-oxazol-4-yl]methyl}-2-[6-(trifluoromethyl)pyridin-2-yl]octahydrocyclopenta[c]pyrrol-4-amine] | 1
3 | O=C(N[C@H]1CC[C@H]2CN(Cc3ccccc3)C[C@H]21)C1(c2ccccc2)CCCCC1 (relative stereo) [Example 9, N-[(3aS*,4S*,6aR*)-2-benzyloctahydrocyclopenta[c]pyrrol-4-yl]-1-phenylcyclohexanecarboxamide] | 1.04
4 | Cn1nccc1CN[C@H]1CC[C@@H]2CN(c3cccc(C(F)(F)F)n3)C[C@@H]21 [Example 725, (3aR,4S,6aS)-N-[(1-methyl-1H-pyrazol-5-yl)methyl]-2-[6-(trifluoromethyl)pyridin-2-yl]octahydrocyclopenta[c]pyrrol-4-amine] | 0.94
5 | O=S(=O)(N[C@@H]1CC[C@H]2CN(CCC(c3ccc(F)cc3)c3ccc(F)cc3)C[C@H]21)c1cccc(C(F)(F)F)c1 [Example 193, N-{(3aS,4R,6aR)-2-[3,3-bis(4-fluorophenyl)propyl]octahydrocyclopenta[c]pyrrol-4-yl}-3-(trifluoromethyl)benzenesulfonamide] | 0.57
6 | O=C(N[C@H]1CC[C@H]2CN(Cc3ccccc3C(F)(F)F)C[C@H]21)C(C1CCCCC1)C1CCCCC1 [Example 60, 2,2-dicyclohexyl-N-{(3aS,4S,6aR)-2-[2-(trifluoromethyl)benzyl]octahydrocyclopenta[c]pyrrol-4-yl}acetamide] | 2.43
7 | O=C(N[C@@H]1CC[C@H]2CN(Cc3cccc(C(F)(F)F)c3)C[C@H]21)C(c1ccccc1)c1ccccc1 (relative stereo) [Example 145, 2,2-diphenyl-N-{(3aS*,4R*,6aR*)-2-[3-(trifluoromethyl)benzyl]octahydrocyclopenta[c]pyrrol-4-yl}acetamide] | 1.14
8 | FC(F)(F)c1cccc(N2C[C@H]3CC[C@H](NCc4ccn[nH]4)[C@H]3C2)n1 [Example 663, (3aR,4S,6aS)-N-(1H-pyrazol-5-ylmethyl)-2-[6-(trifluoromethyl)pyridin-2-yl]octahydrocyclopenta[c]pyrrol-4-amine] | 1.89
9 | Cc1cccc(CN2C[C@@H]3CC[C@H](NC(=O)C(C4CCCCC4)C4CCCCC4)[C@@H]3C2)c1 [Example 61, 2,2-dicyclohexyl-N-[(3aS,4S,6aR)-2-(3-methylbenzyl)octahydrocyclopenta[c]pyrrol-4-yl]acetamide] | 0.86

Continued, values first:

Row | IC50 [µM] | Structure (SMILES)
10 | 0.46 | CC(C)(C)C[C@H](NCC1CC1)C(=O)N[C@H]1CC[C@@H]2CN(c3ccc(C(F)(F)F)cn3)C[C@@H]21 [Example 478, N^2-(cyclopropylmethyl)-4-methyl-N^1-{(3aR,4S,6aS)-2-[5-(trifluoromethyl)pyridin-2-yl]octahydrocyclopenta[c]pyrrol-4-yl}-L-leucinamide]
11 | 0.74 | O=C(N[C@H]1CC[C@H]2CN(Cc3ccc(F)cc3)C[C@H]21)C(C1CCCCC1)C1CCCCC1 [Example 56, 2,2-dicyclohexyl-N-[(3aS,4S,6aR)-2-(4-fluorobenzyl)octahydrocyclopenta[c]pyrrol-4-yl]acetamide]
12 | 2.99 | O=C(Nc1ccc(Cl)cc1)N[C@H]1CC[C@@H]2CN(c3cccc(C(F)(F)F)n3)C[C@@H]21 [Example 713, 1-(4-chlorophenyl)-3-{(3aR,4S,6aS)-2-[6-(trifluoromethyl)pyridin-2-yl]octahydrocyclopenta[c]pyrrol-4-yl}urea]
13 | 1.93 | CC(C)C[C@@H](C(=O)N[C@H]1CC[C@@H]2CN(Cc3ccc(C(F)(F)F)cc3)C[C@@H]21)N(C)C(=O)OC(C)(C)C [Example 308, tert-butyl methyl((S)-4-methyl-1-oxo-1-((3aR,4S,6aS)-2-(4-(trifluoromethyl)benzyl)octahydrocyclopenta[c]pyrrol-4-ylamino)pentan-2-yl)carbamate]
14 | 0.75 | CN[C@@H](CC(C)C)C(=O)N[C@H]1CC[C@@H]2CN(c3cc(F)ccc3C(F)F)C[C@@H]21 [Example 770, N-{(3aR,4S,6aS)-2-[2-(difluoromethyl)-5-fluorophenyl]octahydrocyclopenta[c]pyrrol-4-yl}-N^2-methyl-L-leucinamide]
15 | 1.25 | CC(C)C[C@H](NCC(C)(C)C)C(=O)N[C@H]1CC[C@@H]2CN(S(=O)(=O)c3ccc(F)cc3)C[C@@H]21 [Example 261, N^1-{(3aR,4S,6aS)-2-[(4-fluorophenyl)sulfonyl]octahydrocyclopenta[c]pyrrol-4-yl}-N^2-neopentyl-L-leucinamide]
16 | 0.59 | CC(C)C(C(=O)N[C@H]1CC[C@@H]2CN(CCCCc3ccccc3)C[C@@H]21)c1ccccc1 (stereo partly drawn) [Example 113, 3-methyl-2-phenyl-N-[(3aR,4S,6aS)-2-(4-phenylbutyl)octahydrocyclopenta[c]pyrrol-4-yl]butanamide]
17 | > 30 | CC(C)(C)C[C@H](N)C(=O)N[C@H]1CC[C@@H]2CN(C(=O)[C@@H](N)Cc3ccccc3)C[C@@H]21 [Example 465, 4-methyl-N^1-[(3aR,4S,6aS)-2-L-phenylalanyloctahydrocyclopenta[c]pyrrol-4-yl]-L-leucinamide]
18 | 0.99 | CN[C@@H](CC(C)C)C(=O)N[C@H]1CC[C@@H]2CN(c3ccc(F)c(C(F)(F)F)c3)C[C@@H]21 [Example 621, N-{(3aR,4S,6aS)-2-[4-fluoro-3-(trifluoromethyl)phenyl]octahydrocyclopenta[c]pyrrol-4-yl}-N^2-methyl-L-leucinamide]
19 | 1.01 | CN[C@@H](CC(C)C)C(=O)N[C@H]1CC[C@@H]2CN(c3cccc(SC(F)(F)F)c3)C[C@@H]21 [Example 712, N^2-methyl-N-[(3aR,4S,6aS)-2-{3-[(trifluoromethyl)thio]phenyl]octahydrocyclopenta[c]pyrrol-4-yl}-L-leucinamide]
20 | 2.02 | CC(C)[C@@H](C(=O)N[C@@H]1CC[C@H]2CN(Cc3cccc(C(F)(F)F)c3)C[C@H]21)N(C)C(=O)OC(C)(C)C [Example 316, tert-butyl methyl((S)-3-methyl-1-oxo-1-((3aS,4R,6aR)-2-(3-(trifluoromethyl)benzyl)octahydrocyclopenta[c]pyrrol-4-ylamino)butan-2-yl)carbamate]

Same assay, conditions: read-out: IC50 (μM) or percent inhibition (* indicates 3 minute incubation, otherwise 60 minute); IC50; 60 minute pre-incubation with compound; IMR32 cells, 80 mM KCl depolarization

Row | Structure (SMILES) | IC50 [µM]
21 | O=C(CCCCC(c1ccc(F)cc1)c1ccc(F)cc1)N[C@@H]1CC[C@H]2CN(Cc3cccc(C(F)(F)F)c3)C[C@H]21 (relative stereo) [Example 140, 6,6-bis(4-fluorophenyl)-N-{(3aS*,4R*,6aR*)-2-[3-(trifluoromethyl)benzyl]octahydrocyclopenta[c]pyrrol-4-yl}hexanamide] | 0.62
22 | O=S(=O)(c1cccc(C(F)(F)F)c1)N(C1CC1)[C@H]1CC[C@H]2CN(Cc3ccccc3)C[C@H]21 (relative stereo) [Example 199, N-[(3aS*,4S*,6aR*)-2-benzyloctahydrocyclopenta[c]pyrrol-4-yl]-N-cyclopropyl-3-(trifluoromethyl)benzenesulfonamide] | 2.21
23 | O=S(=O)(c1cccc(C(F)(F)F)c1)N1C[C@H]2CC[C@H](NC(c3ccccc3)c3ccccc3)[C@H]2C1 [Example 468, (3aR,4S,6aS)-N-benzhydryl-2-{[3-(trifluoromethyl)phenyl]sulfonyl}octahydrocyclopenta[c]pyrrol-4-amine] | 2.26
24 | O=C(N[C@@H]1CC[C@H]2CN(C(c3ccccc3)c3ccccc3)C[C@H]21)C(C1CCCCC1)C1CCCCC1 [Example 121, N-[(3aS,4R,6aR)-2-benzhydryloctahydrocyclopenta[c]pyrrol-4-yl]-2,2-dicyclohexylacetamide] | 14.3
25 | O=S(=O)(N[C@H]1CC[C@H]2CN(CCCCO)C[C@H]21)c1cccc(C(F)(F)F)c1 [Example 195, N-[(3aS,4S,6aR)-2-(4-hydroxybutyl)octahydrocyclopenta[c]pyrrol-4-yl]-3-(trifluoromethyl)benzenesulfonamide] | 22.1

The remaining lines, values ahead:

Row | IC50 [µM] | Structure (SMILES)
26 | 1.42 | CC(C)(C)[C@@H](C(=O)N[C@@H]1CC[C@H]2CN(Cc3ccccc3)C[C@H]21)c1ccccc1 [Example 32, (2R)-N-[(3aS,4R,6aR)-2-benzyloctahydrocyclopenta[c]pyrrol-4-yl]-3,3-dimethyl-2-phenylbutanamide]
27 | 11.3 | CCC[C@H](NC)C(=O)N[C@H]1CC[C@@H]2CN(S(=O)(=O)c3ccc(OC)cc3)C[C@@H]21 [Example 537, N^1-{(3aR,4S,6aS)-2-[(4-methoxyphenyl)sulfonyl]octahydrocyclopenta[c]pyrrol-4-yl}-N^2-methyl-L-norvalinamide]
28 | 9.68 | CCC[C@H](NC)C(=O)N[C@H]1CC[C@@H]2CN(S(=O)(=O)c3cccs3)C[C@@H]21 [Example 533, N^2-methyl-N^1-[(3aR,4S,6aS)-2-(thien-2-ylsulfonyl)octahydrocyclopenta[c]pyrrol-4-yl]-L-norvalinamide]
29 | 0.94 | CC(C)C[C@H](NC(=O)NC1CCCC1)C(=O)N[C@@H]1CC[C@H]2CN(Cc3cccc(C(F)(F)F)c3)C[C@H]21 [Example 181, N^2-[(cyclopentylamino)carbonyl]-N^1-{(3aS,4R,6aR)-2-[3-(trifluoromethyl)benzyl]octahydrocyclopenta[c]pyrrol-4-yl}-L-leucinamide]
30 | 1.39 | CCC[C@@H](C(=O)N[C@@H]1CC[C@@H]2CN(S(=O)(=O)c3ccc(C(F)(F)F)cc3)C[C@@H]21)N(C)C(=O)OC(C)(C)C [Example 328, tert-butyl methyl((S)-1-oxo-1-((3aR,4R,6aS)-2-(4-(trifluoromethyl)phenylsulfonyl)octahydrocyclopenta[c]pyrrol-4-ylamino)pentan-2-yl)carbamate]

— patent US8691865B2 (AbbVie Inc., priority 2008, dated 2014)
